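Exposure lasted 48 hours, with cells grown in 96-well plates and compounds tested at five concentrations. Definition used: TGI = concentration required for complete inhibition of growth.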
Tests used:
Experiment in all cases: growth of human tumour cells (NCI), 48 h
HCT-15 colon = tested on: HCT-15 colon
SK-MEL-28 melanoma = tested on: SK-MEL-28 melanoma
SK-MEL-5 melanoma = tested on: SK-MEL-5 melanoma
MCF7 breast = tested on: MCF7 breast
UACC-62 melanoma = tested on: UACC-62 melanoma
SF-539 CNS = tested on: SF-539 CNS
CAKI-1 renal = tested on: CAKI-1 renal
NCI-H23 lung = tested on: NCI-H23 lung
SK-MEL-2 melanoma = tested on: SK-MEL-2 melanoma
SF-268 CNS = tested on: SF-268 CNS
SK-OV-3 ovarian = tested on: SK-OV-3 ovarian
OVCAR-5 ovarian = tested on: OVCAR-5 ovarian
EKVX NSCLC = tested on: EKVX NSCLC
SF-295 CNS = tested on: SF-295 CNS
OVCAR-4 ovarian = tested on: OVCAR-4 ovarian
OVCAR-8 ovarian = tested on: OVCAR-8 ovarian
T-47D breast = tested on: T-47D breast
RXF 393 renal = tested on: RXF 393 renal
RPMI-8226 leukemia = tested on: RPMI-8226 leukemia

| Compound | TGI (HCT-15 colon) | TGI (SK-MEL-28 melanoma) | TGI (SK-MEL-5 melanoma) | TGI (MCF7 breast) | TGI (UACC-62 melanoma) | TGI (SF-539 CNS) | TGI (CAKI-1 renal) | TGI (NCI-H23 lung) | TGI (SK-MEL-2 melanoma) | TGI (SF-268 CNS) | TGI (SK-OV-3 ovarian) | TGI (OVCAR-5 ovarian) | TGI (EKVX NSCLC) | TGI (SF-295 CNS) | TGI (OVCAR-4 ovarian) | TGI (OVCAR-8 ovarian) | TGI (T-47D breast) | TGI (RXF 393 renal) | TGI (RPMI-8226 leukemia) |
| --- | --- | --- | --- | --- | --- | --- | --- | --- | --- | --- | --- | --- | --- | --- | --- | --- | --- | --- | --- |
| CCN(CC)Cc1cc(Nc2ccnc3ccc4c(nnn4C)c23)ccc1O | 13.5 µM | 17.8 µM | 29.9 µM | 16.7 µM | 30.9 µM | 18.4 µM | 33.3 µM | 25.6 µM | 31.8 µM | 29.9 µM | 31.5 µM | 33.9 µM | > 100 µM | 25.9 µM | 32.6 µM | 41.9 µM | 63.5 µM | 30.6 µM | – |
| Cc1[nH]c(=O)[nH]c(=S)c1C(=O)NC(C)(CO)CO | > 100 µM | > 100 µM | > 100 µM | > 100 µM | > 100 µM | > 100 µM | > 100 µM | > 100 µM | > 100 µM | > 100 µM | > 100 µM | > 100 µM | > 100 µM | > 100 µM | > 100 µM | > 100 µM | > 100 µM | > 100 µM | – |
| Nc1ccc(C(=O)Nn2c(-c3ccccc3)nc3ccccc3c2=O)cc1 | – | > 100 µM | > 100 µM | > 100 µM | > 100 µM | > 100 µM | – | > 100 µM | – | > 100 µM | > 100 µM | > 100 µM | > 100 µM | > 100 µM | > 100 µM | > 100 µM | > 100 µM | > 100 µM | > 100 µM |
| CNC(=O)N1CCN(C(=O)NC)CCN(C(=O)NC)CC1 | > 100 µM | > 100 µM | > 100 µM | > 100 µM | > 100 µM | – | – | > 100 µM | > 100 µM | > 100 µM | > 100 µM | > 100 µM | > 100 µM | > 100 µM | – | > 100 µM | > 100 µM | > 100 µM | > 100 µM |
| CC(=O)OCC1OC(N2C(c3ccccc3)=CC(c3ccccc3)C(C#N)=C2S)C(OC(C)=O)C(OC(C)=O)C1OC(C)=O (stereo not given) | > 100 µM | > 100 µM | 9.98 µM | > 65.4 µM | 7.67 µM | 16.2 µM | 7.73 µM | 40.5 µM | 16.8 µM | 19.6 µM | – | > 100 µM | – | 10.1 µM | > 31.6 µM | 24.2 µM | > 24.3 µM | 12.9 µM | > 100 µM |

From PubChem BioAssay (NCI)
